One compound from patent publication US20260007688A1, “SYNTHETIC ANALOGS OF CANNABINOL (CBN) FOR THE TREATMENT OF AGERELATED NEUROLOGICAL DISORDERS” (priority 2023, published 2026) can be followed below.

The test system of assay [1] is HT22 cells. Put plainly: Ferroptosis assay, RSL3-induced cell death, MTT viability. It is filed as cell-based. The settings on record: Mus musculus, HT-22, 50 nM RSL3, 16 hours. The protocol: (§1) HT22 mouse hippocampal nerve cells were cultured in high-glucose Dulbecco's modified Eagle's medium (DMEM) (Invitrogen, Cat #11995065, Carlsbad, CA) supplemented with 10% fetal bovine serum (FBS) (Invitrogen, Carlsbad, CA) and 1% antibiotics including penicillin and streptomycin (Invitrogen Cat #10378016, Carlsbad, CA). Cell cultures were incubated at 37° C. in a fully humidified atmosphere containing 10% CO2.
(§2) The assay procedure described in Fischer et al. was used. Briefly, HT22 cells were seeded at 3,000 cells/well in 96-well tissue culture plates in DMEM plus 10% FBS and 1% antibiotics. After 24 hours of plating, the cells were pretreated with different concentrations of test compounds or a vehicle control for 1 hour followed by coincubation with 50-100 nM RSL3 or 500 nM erastin to induce the cell death cascade. After 16 hours of treatment, cell viability was measured by the MTT assay. Optical absorbance was measured at 570 nm on a SpectraMax M5 microplate reader. Samples were analyzed in eight to sixteen wells per independent experiment (n=8-16). Results are presented as the percentage of the controls with vehicle alone.

In assay [2] the test system is HT22 cells. Put plainly: Oxytosis assay, glutamate-induced cell death, MTT viability. The conditions noted are these: Mus musculus, HT-22, 5 mM glutamate, 16 hours. It is filed as cell-based. Here is the method:
as §1
The assay procedure described in Fischer et al., “Old age-associated phenotypic screening for Alzheimer's disease drug candidates identifies sterubin as a potent neuroprotective compound from Yerba santa” Redox Biol. 21 (2019) 101089 was used. Briefly, HT22 cells were seeded at 3,000 cells/well in 96-well tissue culture plates in DMEM plus 10% FBS and 1% antibiotics. After 24 hours of plating, the cells were pretreated with different concentrations of the test compounds or a vehicle control for 1 hour followed by coincubation with 5 mM glutamate to initiate the cell death cascade. After 16 hours of treatment, cell viability was measured by the 3-(4,5-dimethylthiazol-2-yl)-2,5-diphenyltetrazolium bromide (MTT) assay. Optical absorbance was measured at 570 nm on a SpectraMax M5 microplate reader. Samples were analyzed in eight to sixteen wells per independent experiment (n=8-16). Results are presented as the percentage of the controls with vehicle alone.

Assay [3] has as its system HT22 cells. Description: Ferroptosis assay, erastin-induced cell death, MTT viability. The conditions noted are these: Mus musculus, HT-22, 500 nM erastin, 16 hours. It is filed as cell-based. Here is the method:
as §1, §2

The subject of assay [4] is MC65 cells. Put plainly: Intracellular amyloid toxicity assay. It is filed as cell-based. The conditions noted are these: Homo sapiens, 72 h, APP-C99 induced, day 3, MTT, read-out: Aβ toxicity EC50. The source says: Accumulation of intracellular amyloid beta peptide (Aβ) is considered by many as being a primary toxic event in AD. The human nerve cell line MC65 conditionally expresses the C99 fragment of the amyloid precursor protein (APP) leading to the accumulation of intracellular AB. The MC65 cells are routinely grown in the presence of tetracycline and, following its removal, the expression of C99 is induced and the cells die within three days because of the accumulation of intracellular, toxic protein aggregates.
For the intracellular amyloid toxicity assay the procedure described in Huang et al., “Intracellular amyloid toxicity induces oxytosis/ferroptosis regulated cell death” Cell Death Dis. 11 (10) (2020) 828 was used. Briefly, MC65 cells were regularly grown in high glucose DMEM supplemented with 10% FCS and 2 μg/ml tetracycline. For the assay, cells were dissociated and plated at 1×10^5 cells per well in 24 well tissue culture plates. After overnight cultivation in growth medium, the cells were washed three times with phosphate buffered saline containing calcium and magnesium and then switched to Opti-minimal essential media (Opti-MEM, Invitrogen) in the presence (no induction) or absence (APP-C99 induced) of 2 μg/ml tetracycline in the presence or absence different concentrations of the indicated compounds. At day 3, the control cells in the absence of tetracycline were dead, and cell viability was determined by the MTT assay. Optical absorbance was measured at 570 nm on a SpectraMax M5 microplate reader. Samples were analyzed in three wells per independent experiment (n=3). Results are presented as EC50.

The subject of assay [5] is HT22 cells. Put plainly: Seahorse XF real-time ATP rate assay. The settings on record: 5 μM, 16 hours. The assay is classed as cell-based, mouse. Here is the method: The assay procedure described in Liang et al., “Cannabinol inhibits oxytosis/ferroptosis by directly targeting mitochondria independently of cannabinoid receptors” Free Radic. Biol. Med. 180 (2022) 33-51 was used. Briefly, ATP production rates were assayed with a XF Real-Time ATP Rate Assay Kit using a Seahorse Xfe96 Extracellular Flux Analyzer (Seahorse Bioscience, North Billerica, MA). Complete Seahorse XF DMEM assay medium was supplemented with 10 mM glucose, 1 mM pyruvate and 2 mM L-glutamine, at pH 7.4. Mitochondrial ETC inhibitors were used at the following concentrations: 1.5 μM oligomycin and 0.5 μM of a 1:1 mixture of rotenone and antimycin A. Analyses were conducted using Wave software and XF Report Generators (Agilent Technologies). The sensor cartridge for the Xfe analyzer was hydrated overnight at 37° C. before the experiment. Data were normalized for total protein/well. Each condition was analyzed in 20-40 wells per independent experiment (n=20-40). FIGS. 12 and 13 provide the results.
For HT22 cells, 2,000 cells/well were seeded onto the Seahorse Xfe96 plates under normal culture condition as described above. The next day, cells were treated with test compounds at the desired concentrations and incubated for 16 hours. Immediately before the assay, the culture medium in the plates was replaced with complete Seahorse XF DMEM assay medium. […]

In assay [6] the test system is HT22 cells. Put plainly: Seahorse XF mitochondrial stress test (OCR). It is filed as cell-based, mouse. The conditions noted are these: 16 hours, compared with the control cells.
The subject of assay [7] is HT22 cells. Put plainly: Mitochondrial reactive oxygen species measurement (MitoSOX Red). It is filed as cell-based, mouse. The conditions noted are these: 5 μM compound + 50 nM RSL3. Here is the method:
The assay procedure described in Liang et al. was used. Briefly, HT22 cells were seeded onto 96-well black walled plates at a density of 3,000 cells/well in DMEM supplemented with 10% FBS and 1% antibiotics. After the desired treatments, the mitochondrial superoxide ROS were detected with MitoSOX Red reagent (Ex/Em=510/580 nm). Experiments were performed according to the manufacturer's instructions. Fluorescence was measured on a SpectraMax M5 microplate reader. Data were normalized for total protein/well. Each condition was analyzed in eight wells per independent experiment (n=8). Results are presented as the percentage of the controls with vehicle alone. Results were verified by live-cell imaging under a fluorescence microscope. FIG. 14 provides the results.

Assay [8] deals with HT22 cells. Description: Lipid peroxidation measurement (C11-BODIPY). The assay is classed as cell-based, mouse. The settings on record: compound + RSL3, 16 hours, p<0.0001. The protocol:
The assay procedures were adapted from the procedures disclosed by Soriano-Castell et al., “Profiling the chemical nature of anti-oxytotic/ferroptotic compounds with phenotypic screening” Free Radic. Biol. Med. 177 (2021) 313-325 and Liang et al. “Cannabinol inhibits oxytosis/ferroptosis by directly targeting mitochondria independently of cannabinoid receptors” Free Radic. Biol. Med. 180 (2022) 33-51. Briefly, HT22 cells were seeded onto 96-well black walled plates at a density of 3,000 cells/well in DMEM supplemented with 10% FBS and 1% antibiotics. After the desired treatments for 16 hours, cells were labeled with 2.5 μM C11-BODIPY 581/591 (oxidized form Ex/Em=488/520 nm) at 37° C. for 2 hours. Experiments were performed according to the manufacturer's instructions. Fluorescence was measured on a SpectraMax M5 microplate reader. Data were normalized for total protein/well. Each condition was analyzed in eight wells per independent experiment (n=8). Results were verified by live-cell imaging under a fluorescence microscope.

Assay [9] deals with HT22 cells. Description: Microscopic imaging of cell morphology after RSL3. It is filed as cell-based, mouse. The settings on record: 5 μM compound + 50 nM RSL3, 16 hours. The source says: Micrographs show the representative morphological characteristics of the cell cultures under a given condition of 8 experimental replicates. Scale bar=200 μm.
Microscopy. Brightfield, phase contrast, and fluorescence microscopic images were acquired on an IX51 inverted microscope (Olympus Corporation, Tokyo, Japan) with an INFINITY3 monochrome CCD camera (Teledyne Lumenera, Ontario, Canada). Super-resolution microscopic images were acquired on a Zeiss LSM 880 rear port laser scanning confocal and Airyscan FAST microscope (Carl-Zeiss, Oberkochen, Germany). Image processing and analysis were performed with microscope software packages ZEN Black and ImageJ/Fiji.

The subject of assay [10] is Drosophila melanogaster. Put plainly: Drosophila mild traumatic brain injury (mTBI) model. The assay is classed as in vivo. The conditions noted are these: 3.0 μM in food, 3 weeks after mTBI (10×); vehicle 70.2%.

The term EC50 denotes the concentration that produces a half-maximal response. As to `CCCCCc1cc(O)c2c(c1)OC(C)(C)c1ccc(C)cc1-2` [CBN, Cannabinol], the EC50 amounted to 0.69 µM in assay [1], 1.89 µM in [2], 2.33 µM in [3] and 0.014 µM in [4]. Further, the “total ATP production rate” value in [5] (compared to the control) is recorded as “slightly but significantly decreased”. Besides, the “increase in the OXPHOS contribution to ATP production” value in assay [5] (relative to the control) is given as “approximately 15%”. Also, in assay [6], the “maximal and spare mitochondrial respiration (OCR)” value is given as “partial but significant decrease”. Besides, in assay [7], the “RSL3-induced mtROS production” value is reported as “significantly suppressed”. Also, in assay [8], the “RSL3-induced increase in intracellular LPO” value is on record as “significantly suppressed”. In addition, the “prevention of RSL3-induced morphological deteriorations” value in assay [9] is reported as “effectively prevented”. Besides, the “3-week mortality index (MI), percentage of dead flies” value in assay [10] stood at 60.5%.
